The structures appear in SMILES notation.

One experiment has as its system Escherichia coli strain ATCC25922. Briefly: standard microdilution assay to determine minimum inhibitory concentrations (MICs). In kind it is cell-based. As to conditions: Escherichia coli strain ATCC25922, microdilution. A digest of the protocol:
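Broth microdilution per CLSI (M7-A8/M100-S20), 100 μl final volume, with reference-strain quality control; MIC is the lowest inhibitory concentration. Scored "+"/"−" against a 16 micrograms/ml cutoff, "N/A" where unavailable.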
A general note: Dilution methods test growth across graded concentrations, often in twofold steps.
Regarding `CCc1cc(CCCC(C)N)cc(-c2cc3cn(-c4ccc(CNCCCNC(=N)N)cc4)c(=O)nc3[nH]2)c1Cl` (stereo not shown) [Compound 283], the “E. coli ATCC25922 MIC” value is listed as “+ (a “+” indicates that the compound has an MIC value of 16 micrograms/ml or less)”.

Turning to `C[C@H](N)CCCc1cc(SC(F)(F)F)cc(-c2cc3cn(-c4ccc(CNCCCNC(=N)N)cc4)c(=O)nc3[nH]2)c1` [Compound 235], the “E. coli ATCC25922 MIC” value was “+ (a “+” indicates that the compound has an MIC value of 16 micrograms/ml or less)”.

For `CC(N)CCCc1cc(OC(F)(F)F)c(F)c(-c2cc3cn(-c4ccc(CNCCCNC(=N)N)cc4)c(=O)nc3[nH]2)c1` (stereo not shown) [Compound 286], the “E. coli ATCC25922 MIC” value is “+ (a “+” indicates that the compound has an MIC value of 16 micrograms/ml or less)”.

For the molecule `C[C@H](N)C/C=C/c1cc(Cl)c(F)c(-c2cc3cn(-c4ccc(CNCCCNC(=N)N)cc4)c(=O)nc3[nH]2)c1` [Compound 312], the “E. coli ATCC25922 MIC” value is recorded as “+ (a “+” indicates that the compound has an MIC value of 16 micrograms/ml or less)”.

Turning to `CC(N)CCCc1cc(-c2cc3cn(-c4ccc(CNCCCNC(=N)N)cc4)c(=O)nc3[nH]2)cc(C(F)(F)F)c1` (stereo not shown) [Compound 27], the “E. coli ATCC25922 MIC” value is listed as “+ (a “+” indicates that the compound has an MIC value of 16 micrograms/ml or less)”.

Take `C=C[C@H](NCCCNC(=N)N)c1ccc(-n2cc3cc(-c4cc(CCC[C@H](C)N)cc(SC(F)(F)F)c4)[nH]c3nc2=O)cc1` [Compound 473]: the “E. coli ATCC25922 MIC” value was “+ (a “+” indicates that the compound has an MIC value of 16 micrograms/ml or less)”.

Take `N=C(N)NCCCNCc1ccc(-n2cc3cc(-c4cc(CCC5(CN)CC5)cc(OC(F)(F)F)c4)[nH]c3nc2=O)cc1` [Compound 137]: the “E. coli ATCC25922 MIC” value is reported as “+ (a “+” indicates that the compound has an MIC value of 16 micrograms/ml or less)”.

`N=C(N)NCCCNCc1ccc(-n2cc3cc(-c4cc(CC(O)CCN)cc(OC(F)(F)F)c4)[nH]c3nc2=O)cc1` (stereo not shown) [Compound 252]: the “E. coli ATCC25922 MIC” value is on record as “+ (a “+” indicates that the compound has an MIC value of 16 micrograms/ml or less)”.

Regarding `C[C@H](NCCCNC(=N)N)c1ccc(-n2cc3cc(-c4cc(CCCC(C)(C)N)cc(OC(F)(F)F)c4)[nH]c3nc2=O)cc1` [Compound 264], the “E. coli ATCC25922 MIC” value is listed as “+ (a “+” indicates that the compound has an MIC value of 16 micrograms/ml or less)”.

For `CC(N)CCCc1cc(-c2cc3cn(-c4ccc(CNCCCNC(=N)N)cc4)c(=O)nc3[nH]2)cc(C2CCCC2)c1` (stereo not shown) [Compound 483], the “E. coli ATCC25922 MIC” value was “+ (a “+” indicates that the compound has an MIC value of 16 micrograms/ml or less)”.

Turning to `CC(CN)Cc1cc(Cl)c(F)c(-c2cc3cn(-c4ccc(CNCCCNC(=N)N)cc4)c(=O)nc3[nH]2)c1` (stereo not shown) [Compound 256], the “E. coli ATCC25922 MIC” value is listed as “+ (a “+” indicates that the compound has an MIC value of 16 micrograms/ml or less)”.

Consider `C[C@H](NCCCNC(=N)N)c1ccc(-n2cc3cc(-c4cc(CCC5(CN)CC5)cc(Cl)c4F)[nH]c3nc2=O)cc1` [Compound 320], for which the “E. coli ATCC25922 MIC” value is given as “+ (a “+” indicates that the compound has an MIC value of 16 micrograms/ml or less)”.

Turning to `COC(=O)CC(NCCCNC(=N)N)c1ccc(-n2cc3cc(-c4cc(CCCC(C)N)cc(SC(F)(F)F)c4)[nH]c3nc2=O)cc1` (stereo not shown) [Compound 491], the “E. coli ATCC25922 MIC” value is “+ (a “+” indicates that the compound has an MIC value of 16 micrograms/ml or less)”.

Turning to `CC(N)CCCc1cc(CCl)cc(-c2cc3cn(-c4ccc(CNCCCNC(=N)N)cc4)c(=O)nc3[nH]2)c1` (stereo not shown) [Compound 266], the “E. coli ATCC25922 MIC” value is given as “+ (a “+” indicates that the compound has an MIC value of 16 micrograms/ml or less)”.

`N=C(N)NCCCNCc1ccc(-n2cc3cc(-c4cc(CCCCN)c(OC(F)F)cc4F)[nH]c3nc2=O)cc1` [Compound 139]: the “E. coli ATCC25922 MIC” value is recorded as “+ (a “+” indicates that the compound has an MIC value of 16 micrograms/ml or less)”.

As to `CC(CN)CN1CC(NC(=O)Nc2nc(=O)c(-c3ccc(CNCCCNC(=N)N)cc3)c[nH]2)CC1COCc1c(Cl)cccc1Cl` (stereo not shown) [Compound 150], the “E. coli ATCC25922 MIC” value is “− (a “−” indicates that the compound has an MIC value greater than 16 micrograms/ml)”.

Turning to `N=C(N)NCCCNCc1ccc(-n2cc3cc(-c4cc(CSCCN)ccc4F)[nH]c3nc2=O)cc1` [Compound 7], the “E. coli ATCC25922 MIC” value was “+ (a “+” indicates that the compound has an MIC value of 16 micrograms/ml or less)”.

As for `CC(C)(N)CCc1cc(OC(F)(F)F)cc(-c2cc3cn(-c4ccc(CNCCCNC(=N)N)cc4)c(=O)nc3[nH]2)c1` [Compound 255], the “E. coli ATCC25922 MIC” value is given as “+ (a “+” indicates that the compound has an MIC value of 16 micrograms/ml or less)”.

As for `C[C@H](N)CCCc1cc(Cl)c(OC(F)(F)F)c(-c2cc3cn(-c4ccc(CNCCCNC(=N)N)cc4)c(=O)nc3[nH]2)c1` [Compound 321], the “E. coli ATCC25922 MIC” value is listed as “+ (a “+” indicates that the compound has an MIC value of 16 micrograms/ml or less)”.

For the molecule `CC(C)c1cc(CCCCN)cc(-c2cc3cn(-c4ccc(CNCCCNC(=N)N)cc4)c(=O)nc3[nH]2)c1` [Compound 46], the “E. coli ATCC25922 MIC” value is recorded as “+ (a “+” indicates that the compound has an MIC value of 16 micrograms/ml or less)”.

Regarding `CSCCc1cc(CCCCN)cc(-c2cc3cn(-c4ccc(CNCCCNC(=N)N)cc4)c(=O)nc3[nH]2)c1` [Compound 11], the “E. coli ATCC25922 MIC” value is recorded as “+ (a “+” indicates that the compound has an MIC value of 16 micrograms/ml or less)”.

As for `NCc1cc(CCCO)cc(-c2cc3cn(-c4ccc(CNCCCN=C(N)N)cc4)c(=O)nc3[nH]2)c1` [Compound 79], the “E. coli ATCC25922 MIC” value is listed as “+ (a “+” indicates that the compound has an MIC value of 16 micrograms/ml or less)”.

Take `C[C@H](NCCCNC(=N)N)c1ccc(-n2cc3cc(-c4cc(CCCCN)cc(SC(F)(F)F)c4)[nH]c3nc2=O)cc1` [Compound 69]: the “E. coli ATCC25922 MIC” value is on record as “+ (a “+” indicates that the compound has an MIC value of 16 micrograms/ml or less)”.

For the molecule `CCOc1cc(CCCCN)cc(-c2cc3cn(-c4ccc(CNCCCNC(=N)N)cc4)c(=O)nc3[nH]2)c1F` [Compound 245], the “E. coli ATCC25922 MIC” value is reported as “+ (a “+” indicates that the compound has an MIC value of 16 micrograms/ml or less)”.

Take `N=C(N)NCCCNCc1ccc(-n2cc3cc(-c4cc(CCC(O)CN)cc(OC(F)(F)F)c4)[nH]c3nc2=O)cc1` (stereo not shown) [Compound 240]: the “E. coli ATCC25922 MIC” value is listed as “+ (a “+” indicates that the compound has an MIC value of 16 micrograms/ml or less)”.

In the case of `CC(C)(CN)CCc1cc(F)c(Cl)c(-c2cc3cn(-c4ccc(CNCCCNC(=N)N)cc4)c(=O)nc3[nH]2)c1` [Compound 125], the “E. coli ATCC25922 MIC” value is given as “+ (a “+” indicates that the compound has an MIC value of 16 micrograms/ml or less)”.

Regarding `CC(N)CCCc1cc(SC(F)(F)F)cc(-c2cc3cn(-c4ccc(C5(NCCCNC(=N)N)CC5)cc4)c(=O)nc3[nH]2)c1` (stereo not shown) [Compound 500], the “E. coli ATCC25922 MIC” value is recorded as “+ (a “+” indicates that the compound has an MIC value of 16 micrograms/ml or less)”.

Regarding `N=C(N)NCCCNCc1ccc(-n2cc3cc(-c4cc(OC(F)(F)F)cc(C(F)(F)CCCN)c4)[nH]c3nc2=O)cc1` [Compound 112], the “E. coli ATCC25922 MIC” value was “+ (a “+” indicates that the compound has an MIC value of 16 micrograms/ml or less)”.

For `COC(=O)C(NCCCNC(=N)N)c1ccc(-n2cc3cc(-c4cc(CCCC(C)N)cc(C(F)(F)F)c4)[nH]c3nc2=O)cc1` (stereo not shown) [Compound 496], the “E. coli ATCC25922 MIC” value is on record as “+ (a “+” indicates that the compound has an MIC value of 16 micrograms/ml or less)”.

Still in this experiment, the particulars now being: Escherichia coli strain ATCC25922, standard microdilution assay.
On to `NCc1ccc(-n2cc3cc(-c4cc(CCC5(CN)CC5)cc(SC(F)(F)F)c4)[nH]c3nc2=O)cc1` [Compound 357], for which the “E. coli ATCC25922 MIC” value is recorded as “− (a “−” indicates that the compound has an MIC value greater than 16 micrograms/ml)”.

Consider `CC(NCCCNC(=N)N)c1ccc(-n2cc3cc(-c4cc(COC(C)C(C)N)cc(OC(F)(F)F)c4)[nH]c3nc2=O)cc1` (stereo not shown) [Compound 419], for which the “E. coli ATCC25922 MIC” value was “+ (a “+” indicates that the compound has an MIC value of 16 micrograms/ml or less)”.

As for `C[C@H](N)CCCc1cc(SC(F)(F)F)c(Cl)c(-c2cc3cn(-c4ccc([C@@H](C)N)cc4)c(=O)nc3[nH]2)c1` [Compound 409], the “E. coli ATCC25922 MIC” value was “− (a “−” indicates that the compound has an MIC value greater than 16 micrograms/ml)”.

For the molecule `CC(C)Cc1cc(CCC[C@H](C)N)cc(-c2cc3cn(-c4ccc([C@H](C)NCCCNC(=N)N)cc4)c(=O)nc3[nH]2)c1F` [Compound 432], the “E. coli ATCC25922 MIC” value is “+ (a “+” indicates that the compound has an MIC value of 16 micrograms/ml or less)”.

Turning to `CC(N)CCCc1cc(CC(F)(F)F)cc(-c2cc3cn(-c4ccc(C(C)NCCCNC(=N)N)cc4)c(=O)nc3[nH]2)c1` (stereo not shown) [Compound 340], the “E. coli ATCC25922 MIC” value is listed as “+ (a “+” indicates that the compound has an MIC value of 16 micrograms/ml or less)”.

`CC(N)CCCc1cc(Cl)c(F)c(-c2cc3cn(-c4ccc(C(C)NCCCNC(N)=NC(C)C)cc4)c(=O)nc3[nH]2)c1` (stereo not shown) [Compound 364]: the “E. coli ATCC25922 MIC” value is on record as “+ (a “+” indicates that the compound has an MIC value of 16 micrograms/ml or less)”.

With `C[C@H](N)CCCc1cc2c(c(-c3cc4cn(-c5ccc([C@H](C)NCCCNC(=N)N)cc5)c(=O)nc4[nH]3)c1)CCC2=O` [Compound 461], the “E. coli ATCC25922 MIC” value is “+ (a “+” indicates that the compound has an MIC value of 16 micrograms/ml or less)”.

Turning to `C[C@H](NCCCNC(=N)N)c1ccc(-n2cc3cc(-c4cc(C[C@H]5C[C@@H](CN)C5)cc(SC(F)(F)F)c4)[nH]c3nc2=O)cc1` [Compound 402], the “E. coli ATCC25922 MIC” value is “+ (a “+” indicates that the compound has an MIC value of 16 micrograms/ml or less)”.

`C[C@H](NCCCNC(=N)N)c1ccc(-n2cc3cc(-c4cc(CC[C@@H](C)N)cc(C(F)(F)F)c4)[nH]c3nc2=O)cc1` [Compound 410]: the “E. coli ATCC25922 MIC” value was “+ (a “+” indicates that the compound has an MIC value of 16 micrograms/ml or less)”.

Take `C[C@H](N)CCCc1cc(Cl)c(F)c(-c2cc3cn(-c4ccc(CNCCCN/C(N)=N\[N+](=O)[O-])cc4)c(=O)nc3[nH]2)c1` [Compound 394]: the “E. coli ATCC25922 MIC” value is “+ (a “+” indicates that the compound has an MIC value of 16 micrograms/ml or less)”.

The same experiment, now with this note: Escherichia coli strain ATCC25922, standard microdilution assay; read-out: E. coli ATCC25922 MIC.
In the case of `C[C@H](N)CCCc1cc(C(F)(F)F)cc(-c2cc3cn(-c4ccc([C@H](C)NCCCNC(=N)N)cc4)c(=O)nc3[nH]2)n1` [Compound 390], the MIC (commonly the lowest concentration found to suppress growth) was at most 16 µg/mL.

(Values after patent US9221827B2, “Antimicrobial compounds and methods of making and using the same” (Melinta Therapeutics, Inc., priority 2011, dated 2015).)
